Laboratory results reported in patent US20080312255A1 (ASTRAZENECA AB, priority 2007, published 2008).

Biological target: S. aureus GyrB ATPase (Staphylococcus aureus, UniProt P0A0K8)
Test: S. aureus GyrB ATPase inhibition (ammonium molybdate/malachite green phosphate detection)
Format: biochemical
Conditions: compound concentration of 1 μM
Method in brief: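 E. coli GyrA and S. aureus GyrB (250 pM each) with sheared salmon sperm DNA and 250 μM ATP, pH 7.5 Hepes buffer. Released phosphate detected by malachite green/ammonium molybdate at 650 nm; percent inhibition at 1 μM compound unless noted, normalized to 2% DMSO (0%) and EDTA (100%) controls.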

Chain of S. aureus GyrB ATPase (P0AES4 whole entry): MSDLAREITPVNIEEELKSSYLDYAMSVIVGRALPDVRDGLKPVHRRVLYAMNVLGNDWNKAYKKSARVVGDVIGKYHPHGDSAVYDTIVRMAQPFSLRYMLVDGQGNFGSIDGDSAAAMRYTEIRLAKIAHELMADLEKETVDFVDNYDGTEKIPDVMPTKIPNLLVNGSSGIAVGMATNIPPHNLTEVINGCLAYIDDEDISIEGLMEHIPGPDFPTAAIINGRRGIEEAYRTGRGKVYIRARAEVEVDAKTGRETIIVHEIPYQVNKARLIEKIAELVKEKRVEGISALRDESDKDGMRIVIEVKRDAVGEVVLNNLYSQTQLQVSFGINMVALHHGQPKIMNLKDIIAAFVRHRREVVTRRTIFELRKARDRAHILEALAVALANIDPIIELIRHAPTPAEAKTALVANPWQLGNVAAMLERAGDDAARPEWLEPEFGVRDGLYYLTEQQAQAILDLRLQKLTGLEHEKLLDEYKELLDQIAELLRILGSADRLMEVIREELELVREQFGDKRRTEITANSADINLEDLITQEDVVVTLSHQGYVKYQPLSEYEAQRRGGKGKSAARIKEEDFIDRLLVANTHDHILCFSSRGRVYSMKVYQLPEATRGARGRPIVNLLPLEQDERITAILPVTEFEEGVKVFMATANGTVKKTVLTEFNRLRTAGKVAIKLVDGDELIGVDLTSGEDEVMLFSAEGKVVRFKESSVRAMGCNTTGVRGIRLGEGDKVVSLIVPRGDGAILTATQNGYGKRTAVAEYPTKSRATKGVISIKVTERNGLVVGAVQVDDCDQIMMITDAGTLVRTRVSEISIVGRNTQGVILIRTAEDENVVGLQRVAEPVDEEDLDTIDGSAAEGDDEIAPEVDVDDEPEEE
Chain of S. aureus GyrB ATPase (P0A0K8 whole entry): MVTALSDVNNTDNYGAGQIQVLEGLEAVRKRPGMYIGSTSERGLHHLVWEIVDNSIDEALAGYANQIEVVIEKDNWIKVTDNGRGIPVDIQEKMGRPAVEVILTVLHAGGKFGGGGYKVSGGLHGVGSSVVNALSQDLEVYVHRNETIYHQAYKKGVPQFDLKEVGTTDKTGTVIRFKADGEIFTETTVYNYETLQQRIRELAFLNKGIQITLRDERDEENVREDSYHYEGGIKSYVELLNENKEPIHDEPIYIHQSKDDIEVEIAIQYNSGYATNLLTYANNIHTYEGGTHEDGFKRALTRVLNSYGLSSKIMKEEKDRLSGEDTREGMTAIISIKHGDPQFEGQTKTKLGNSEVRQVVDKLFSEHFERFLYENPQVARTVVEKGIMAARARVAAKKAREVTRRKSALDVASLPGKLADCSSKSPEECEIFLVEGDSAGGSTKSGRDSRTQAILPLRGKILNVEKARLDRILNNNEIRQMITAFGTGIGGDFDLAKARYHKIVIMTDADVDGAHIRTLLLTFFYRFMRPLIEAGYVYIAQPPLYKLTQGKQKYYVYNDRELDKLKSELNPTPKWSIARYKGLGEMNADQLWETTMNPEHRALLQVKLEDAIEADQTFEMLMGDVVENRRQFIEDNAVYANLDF

Structure (SMILES)	inhibition at 1 µM [%]
COCCn1ccnc1-c1nc(N2CC[C@@H](NC(=O)c3[nH]c(C)c(C#N)c3Cl)[C@@H](OC)C2)sc1C(=O)O [Example 30, 2-((3S,4R)-4-{[(3-Chloro-4-cyano-5-methyl-1H-pyrrol-2-yl)carbonyl]amino}-3-methoxypiperidin-1-yl)-4-[1-(2-methoxyethyl)-1H-imidazol-2-yl]-1,3-thiazole-5-carboxylic acid]	102
Cc1[nH]c(C(=O)N[C@@H]2CCN(c3nc(-c4cnccn4)c(C(=O)O)s3)C[C@@H]2F)c(Cl)c1Cl [Example 14]	98.3
CCOC(=O)c1sc(N2CC[C@@H](NC(=O)c3[nH]c(C)c(Cl)c3Cl)[C@@H](F)C2)nc1-c1ccccn1 [Example 49]	112
CNc1nc(-c2nc(N3CC[C@@H](NC(=O)c4[nH]c(C)c(Cl)c4Cl)[C@@H](F)C3)sc2C(=O)OC)cs1 [Example 75]	93.1
COCCn1ccnc1-c1nc(N2CC[C@@H](NC(=O)c3[nH]c(C)c(Cl)c3Cl)[C@@H](OC)C2)sc1C(=O)O [Example 25, 2-((3S,4R)-4-{[(3,4-Dichloro-5-methyl-1H-pyrrol-2-yl)carbonyl]amino}-3-methoxypiperidin-1-yl)-4-[1-(2-methoxyethyl)-1H-imidazol-2-yl]-1,3-thiazole-5-carboxylic acid]	98.3
CO[C@H]1CN(c2nc(-c3cnc(C)cn3)c(C(=O)O)s2)CC[C@H]1NC(=O)c1[nH]c(C)c(Cl)c1C#N [Example 124, 2-((3S,4R)-4-(4-chloro-3-cyano-5-methyl-1H-pyrrole-2-carboxamido)-3-methoxypiperidin-1-yl)-4-(5-methylpyrazin-2-yl)thiazole-5-carboxylic acid]	104
Cc1[nH]c(C(=O)N[C@@H]2CCN(c3nc(-c4cnccn4)c(C(=O)O)s3)C[C@@H]2OCc2ccccc2)c(C#N)c1Cl [Example 155, 2-[(3S,4R)-3-(benzyloxy)-4-{[(4-chloro-3-cyano-5-methyl-1H-pyrrol-2-yl)carbonyl]amino}piperidin-1-yl]-4-(pyrazin-2-yl)-1,3-thiazole-5-carboxylic acid]	110
CO[C@H]1CN(c2nc(-c3nccs3)c(C(=O)O)s2)CC[C@H]1NC(=O)c1[nH]c(C)c(Cl)c1Cl [Example 3, 2′-((3S,4R)-4-{[(3,4-Dichloro-5-methyl-1H-pyrrol-2-yl)carbonyl]amino}-3-methoxypiperidin-1-yl)-2,4′-bi-1,3-thiazole-5′-carboxylic acid]	98.6
COc1ccnc(-c2nc(N3CC[C@@H](NC(=O)c4[nH]c(C)c(Cl)c4Cl)[C@@H](OC)C3)sc2C(=O)O)n1 [Example 42, 2-((3S,4R)-4-{[(3,4-Dichloro-5-methyl-1H-pyrrol-2-yl)carbonyl]amino}-3-methoxypiperidin-1-yl)-4-(4-methoxypyrimidin-2-yl)-1,3-thiazole-5-carboxylic acid]	99.9
COC(=O)c1sc(N2CC[C@@H](NC(=O)c3[nH]c(C)c(Cl)c3C#N)[C@@H](OC)C2)nc1-c1ncnn1C [Example 104, methyl 2-((3S,4R)-4-(4-chloro-3-cyano-5-methyl-1H-pyrrole-2-carboxamido)-3-methoxypiperidin-1-yl)-4-(1-methyl-1H-1,2,4-triazol-5-yl)thiazole-5-carboxylate]	86.4
COCCn1ccnc1-c1nc(N2CC[C@@H](NC(=O)c3[nH]c(C)c(Cl)c3Cl)[C@@H](OC)C2)sc1C(=O)OC [Example 64]	96.2
Cc1[nH]c(C(=O)N[C@@H]2CCN(c3nc(-c4ccccn4)c(C(=O)O)s3)C[C@@H]2F)c(Cl)c1Cl [Example 8, 2-((3S,4R)-4-{[(3,4-Dichloro-5-methyl-1H-pyrrol-2-yl)carbonyl]amino}-3-fluoropiperidin-1-yl)-4-pyridin-2-yl-1,3-thiazole-5-carboxylic acid]	106
CCOC(=O)c1sc(N2CC[C@@H](NC(=O)c3[nH]c(C)c(Cl)c3Cl)[C@@H](OC)C2)nc1-c1ncccn1 [Example 43, Ethyl 2-((3S,4R)-4-{[(3,4-dichloro-5-methyl-1H-pyrrol-2-yl)carbonyl]amino}-3-methoxypiperidin-1-yl)-4-pyrimidin-2-yl-1,3-thiazole-5-carboxylate]	102
CO[C@H]1CN(c2nc(-c3ncccc3F)c(C(=O)O)s2)CC[C@H]1NC(=O)c1[nH]c(C)c(Cl)c1C#N [Example 123, 2-((3S,4R)-4-(4-chloro-3-cyano-5-methyl-1H-pyrrole-2-carboxamido)-3-methoxypiperidin-1-yl)-4-(3-fluoropyridin-2-yl)thiazole-5-carboxylic acid]	104
Cc1[nH]c(C(=O)N[C@@H]2CCN(c3nc(-c4ncnn4C)c(C(=O)O)s3)C[C@@H]2OCc2ccccc2)cc1Cl [Example 146, 2-[(3S,4R)-3-(benzyloxy)-4-{[(4-chloro-5-methyl-1H-pyrrol-2-yl)carbonyl]amino}piperidin-1-yl]-4-(1-methyl-1H-1,2,4-triazol-5-yl)-1,3-thiazole-5-carboxylic acid]	116
COC(=O)c1sc(N2CC[C@@H](NC(=O)c3[nH]c(C)c(Cl)c3Cl)[C@@H](OC)C2)nc1-c1cn(C)nn1 [Example 92, methyl 2-((3S,4R)-4-(3,4-dichloro-5-methyl-1H-pyrrole-2-carboxamido)-3-methoxypiperidin-1-yl)-4-(1-methyl-1H-1,2,3-triazol-4-yl)thiazole-5-carboxylate]	100
CO[C@H]1CN(c2nc(-c3nc(C)c(C)n3C)c(C(=O)O)s2)CC[C@H]1NC(=O)c1[nH]c(C)c(Cl)c1Cl [Example 32, 2-((3S,4R)-4-{[(3,4-Dichloro-5-methyl-1H-pyrrol-2-yl)carbonyl]amino}-3-methoxypiperidin-1-yl)-4-(1,4,5-trimethyl-1H-imidazol-2-yl)-1,3-thiazole-5-carboxylic acid]	99.9
CO[C@H]1CN(c2nc(-c3nc4ccccc4s3)c(C(=O)O)s2)CC[C@H]1NC(=O)c1[nH]c(C)c(Cl)c1Cl [Example 13, 4-(1,3-Benzothiazol-2-yl)-2-((3S,4R)-4-{[(3,4-dichloro-5-methyl-1H-pyrrol-2-yl)carbonyl]amino}-3-methoxypiperidin-1-yl)-1,3-thiazole-5-carboxylic acid]	101
COC(=O)c1sc(N2CC[C@@H](NC(=O)c3[nH]c(C)c(Cl)c3Cl)[C@@H](OC)C2)nc1-c1nccc(OC)n1 [Example 82]	103
CCOC(=O)c1sc(N2CC[C@@H](NC(=O)c3[nH]c(C)c(Cl)c3Cl)[C@@H](F)C2)nc1-c1nc2ccccc2s1 [Example 56]	93.9
CO[C@H]1CN(c2nc(-c3ccncn3)c(C(=O)O)s2)CC[C@H]1NC(=O)c1[nH]c(C)c(Cl)c1Cl [Example 2, 2-((3S,4R)-4-{[(3,4-Dichloro-5-methyl-1H-pyrrol-2-yl)carbonyl]amino}-3-methoxypiperidin-1-yl)-4-pyrimidin-4-yl-1,3-thiazole-5-carboxylic acid]	101
CCCO[C@H]1CN(c2nc(-c3ncccc3F)c(C(=O)O)s2)CC[C@H]1NC(=O)c1[nH]c(C)c(Cl)c1Cl [Example 160, 2-[(3S,4R)-4-{[(3,4-dichloro-5-methyl-1H-pyrrol-2-yl)carbonyl]amino}-3-propoxypiperidin-1-yl]-4-(3-fluoropyridin-2-yl)-1,3-thiazole-5-carboxylic acid]	4.5
